Test results reported in patent publication US7638509B2, “Diene compounds and formulations” (priority 2003, dated 2009).

Columns and labels:
[1] = biological target: T1, AR with coactivator ARA70 (Homo sapiens, UniProt P10275); test: ARA70 enhancement of AR transactivation, MMTV-Luc in DU145 cells with pSG5-AR and pSG5-ARA70; type: cell-based; details: DU145, pSG5-AR + MMTV-Luc with or without pSG5-ARA70
T1 construct: expressed in transfected cells; host or cells: DU145
T1 sequence (P10275 1-920): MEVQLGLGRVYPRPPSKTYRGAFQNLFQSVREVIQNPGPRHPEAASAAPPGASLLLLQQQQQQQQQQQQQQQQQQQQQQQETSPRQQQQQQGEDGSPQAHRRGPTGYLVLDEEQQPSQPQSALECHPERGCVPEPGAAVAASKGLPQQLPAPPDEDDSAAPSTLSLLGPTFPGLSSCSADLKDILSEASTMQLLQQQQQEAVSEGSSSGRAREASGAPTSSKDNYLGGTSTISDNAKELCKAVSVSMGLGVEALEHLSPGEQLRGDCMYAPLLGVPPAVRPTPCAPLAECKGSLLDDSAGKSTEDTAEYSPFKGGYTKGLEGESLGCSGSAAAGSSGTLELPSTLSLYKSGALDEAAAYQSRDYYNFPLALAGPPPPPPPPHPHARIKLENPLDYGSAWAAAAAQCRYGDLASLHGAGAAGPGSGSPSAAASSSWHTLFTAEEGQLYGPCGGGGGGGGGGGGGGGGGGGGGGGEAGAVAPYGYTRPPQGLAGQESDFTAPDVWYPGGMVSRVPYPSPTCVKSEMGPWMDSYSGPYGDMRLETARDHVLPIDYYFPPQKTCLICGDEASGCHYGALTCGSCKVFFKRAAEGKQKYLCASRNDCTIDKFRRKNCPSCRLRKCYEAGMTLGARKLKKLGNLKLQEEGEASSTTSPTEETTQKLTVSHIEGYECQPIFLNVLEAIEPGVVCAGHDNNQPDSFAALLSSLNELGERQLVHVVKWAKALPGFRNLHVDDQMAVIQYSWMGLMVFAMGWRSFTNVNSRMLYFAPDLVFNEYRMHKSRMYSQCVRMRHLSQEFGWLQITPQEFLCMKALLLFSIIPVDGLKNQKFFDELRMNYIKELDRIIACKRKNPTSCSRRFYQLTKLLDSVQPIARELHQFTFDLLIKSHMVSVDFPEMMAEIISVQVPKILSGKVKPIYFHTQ
Protocol: Cell Culture, Transfection, and Reporter Gene Assay. The human prostate cancer cell lines, LNCaP, PC-3, and DU145, and non-prostate cancer cell line COS-1 were maintained in RPMI or Dulbecco's modified Eagle's medium (DMEM) (Life Technologies) supplemented with 10% fetal bovine serum (FBS). Transfections and luciferase (Luc) assays were performed as previously described (Miyamoto, H., Yeh, S., Wilding, G. & Chang, C. (1998) Proc. Natl. Acad. Sci. USA 95, 7379-7384; Miyamoto, H., Rahman, M., Takatera, H., Kang, H.-Y., Yeh, S., Chang, H.-C., Nishimura, K., Fujimoto, N. & Chang, C. (2002) J. Biol. Chem. 277, 4609-4617). Briefly, cells seeded to reach a density of 50-60% confluence in 12 well tissue culture plates were transfected with 1.5 μg of DNA according to “SuperFect transfection” instructions (Qiagen). After 2-3 h incubation, cells were treated with medium supplemented with charcoal-stripped FBS containing either ethanol or ligands for 24 h. The cells were then harvested and whole cell extracts were used for Luc assay. The Luc activity was determined using a Dual-Luciferase Reporter Assay System (Promega) and luminometer.
The effects of ADEK on the DHT-induced transcriptional activity of AR was examined in COS-1 or LNCaP cells transfected with MMTV-Luc. The pSG5-AR was co-transfected in COS-1 cells. […] Values were obtained from the mean±SD of at least three determinations. […]

[2] = biological target: T2, progesterone receptor (PR) (Homo sapiens, UniProt P06401); test: Steroid hormone specificity, PR/MMTV-Luc in PC-3 cells; type: cell-based; details: PC-3, PR/MMTV-Luc, ADEK at 0.01 mM, 0.1 mM and 1.0 mM, 24 h
T2 construct: expressed in transfected cells; host or cells: PC-3
T2 sequence (P06401 1-933): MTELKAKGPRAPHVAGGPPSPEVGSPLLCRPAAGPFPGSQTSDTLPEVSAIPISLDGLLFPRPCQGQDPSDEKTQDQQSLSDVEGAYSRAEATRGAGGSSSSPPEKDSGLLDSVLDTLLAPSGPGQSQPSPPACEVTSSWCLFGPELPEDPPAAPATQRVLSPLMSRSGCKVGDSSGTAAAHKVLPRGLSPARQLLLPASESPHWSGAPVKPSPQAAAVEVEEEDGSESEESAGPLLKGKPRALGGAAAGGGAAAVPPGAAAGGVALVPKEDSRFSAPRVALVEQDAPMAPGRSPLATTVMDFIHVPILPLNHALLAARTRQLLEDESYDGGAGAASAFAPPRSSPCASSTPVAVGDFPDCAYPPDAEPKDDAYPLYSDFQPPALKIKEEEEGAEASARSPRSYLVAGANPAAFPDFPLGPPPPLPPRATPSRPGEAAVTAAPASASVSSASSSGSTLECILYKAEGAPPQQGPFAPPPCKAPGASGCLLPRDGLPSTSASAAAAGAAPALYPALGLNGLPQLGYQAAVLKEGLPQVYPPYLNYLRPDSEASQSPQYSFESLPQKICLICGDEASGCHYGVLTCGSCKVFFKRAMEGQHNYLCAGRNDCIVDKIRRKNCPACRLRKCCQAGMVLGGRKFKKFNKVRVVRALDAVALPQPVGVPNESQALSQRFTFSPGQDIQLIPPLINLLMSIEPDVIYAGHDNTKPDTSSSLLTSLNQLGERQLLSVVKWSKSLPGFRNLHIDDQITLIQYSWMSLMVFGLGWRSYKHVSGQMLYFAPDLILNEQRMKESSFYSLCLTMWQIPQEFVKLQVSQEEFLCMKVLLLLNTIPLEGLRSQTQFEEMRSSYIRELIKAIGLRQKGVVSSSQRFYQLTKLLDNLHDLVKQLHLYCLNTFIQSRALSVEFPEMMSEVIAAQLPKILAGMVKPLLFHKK
Protocol: Cell Culture, Transfection, and Reporter Gene Assay. The human prostate cancer cell lines, LNCaP, PC-3, and DU145, and non-prostate cancer cell line COS-1 were maintained in RPMI or Dulbecco's modified Eagle's medium (DMEM) (Life Technologies) supplemented with 10% fetal bovine serum (FBS). Transfections and luciferase (Luc) assays were performed as previously described (Miyamoto, H., Yeh, S., Wilding, G. & Chang, C. (1998) Proc. Natl. Acad. Sci. USA 95, 7379-7384; Miyamoto, H., Rahman, M., Takatera, H., Kang, H.-Y., Yeh, S., Chang, H.-C., Nishimura, K., Fujimoto, N. & Chang, C. (2002) J. Biol. Chem. 277, 4609-4617). Briefly, cells seeded to reach a density of 50-60% confluence in 12 well tissue culture plates were transfected with 1.5 μg of DNA according to “SuperFect transfection” instructions (Qiagen). […] The Luc activity was determined using a Dual-Luciferase Reporter Assay System (Promega) and luminometer.
Steroid Hormone Specificity of ADEK. To characterize the steroid hormone activity of ADEK, PC-3 cells were transfected with steroid receptor/reporter (progesterone receptor (PR)/MMTV-Luc, glucocorticoid receptor (GR)/MMTV-Luc, or estrogen receptor (ER)/ERE-Luc) and analyzed for expression of the Luc reporter gene. […] The Luc activity was measured relative to that of ETOH treatment (set as 1-fold). […]

With CC(=O)O[C@H]1C=C[C@@]2(C)C(=CC[C@@H]3[C@@H]2CC[C@@]2(C)[C@H]3CCC23OCCO3)C1 [ADEK, 3β-acetoxy-17,17-ethylenedioxyandrosta-1,5-diene] the “enhancement of AR transactivation by ARA70 in the presence of compound” value [1] was less than 2 fold and the “progesterone activity (in words)” value [2] was “no significant”.
